{"source": "patent US20220031596A1", "about": "“ANTI-AGING AGENT AND ANTI-AGING METHOD” (priority 2018, published 2022)", "key": {"[1]": {"test_system": "calcitonin concentration in the plasma", "test": "Evaluation of calcitonin secretion promoting effect (plasma calcitonin, 24-week oral ingestion)", "assay_type": "in vivo, human", "details": "for calcitonin concentration in the plasma, 0 weeks (before ingestion) / calcitonin concentration in the plasma, 24 weeks (after ingestion) / calcitonin concentration in the plasma, Change rate (24 weeks - 0 weeks): High Dose Group (200 mg/daily, oral), mean±SD; for calcitonin concentration in the plasma, 0 weeks (before ingestion): baseline", "description": "In order to confirm a change in the calcitonin quantity before and after ingestion of the nicotinamide mononucleotide, a test was conducted on healthy males and females aged 50 to 70 years.\nAs a sample of Working Example 12, a capsule formulation containing the nicotinamide mononucleotide and starch (200 mg of the nicotinamide mononucleotide in 4 capsules) (manufactured by SHINKOWA PHARMACEUTICAL Co., Ltd.) was used.\n(§1) Each group consisting of five healthy males and females aged 50 to 70 years in an unbiased age group ingested the above high dose capsule formulation once a day by 4 capsules for 24 weeks (total 10 subjects, 200 mg/daily ingestion). In order to conduct appropriate evaluations, those who had been regularly using medical products for chronic diseases, those who had been consuming healthy foods that may affect clinical research, and those who were currently participating in other clinical researches or clinical trials or had participated in other clinical researches or clinical trials within the last three months were excluded from the subject for the evaluation. The capsule formulations were ingested at 10 am (between meals and fasting state) together with water or lukewarm water (oral administration).\nMeasurement of the calcitonin quantity in the plasma was conducted by requesting the measurement to an external public organization according to a usual method. FIGS. 24a to 24c indicate transitions of the calcitonin concentration (pg/ml) in the plasma for 24 weeks. FIG. 24a represents the transitions of the whole subjects; FIG. 24b represents the transitions of the male subjects; FIG. 24c represents the transitions of the female subjects. Further, FIGS. 25a to 25c indicate change rates (%) of the blood calcitonin concentration up to 24 weeks when the nicotinamide mononucleotide was orally administered to the subjects for 24 weeks. FIG. 25a represents the change rates of the whole subjects; FIG. 25b represents the change rates of the male subjects; FIG. 25c represents the change rates of the female subjects. Further, Table 11 indicates the numerical values of the calcitonin concentration (pg/ml) in the plasma before the ingestion of the nicotinamide mononucleotide (0 weeks) and after the ingestion of the nicotinamide mononucleotide (24 weeks). Note that the numerical values represent mean values±standard deviation."}, "[2]": {"test_system": "testosterone concentration in the plasma", "test": "Evaluation of testosterone secretion promoting effect (plasma testosterone, 24-week oral ingestion)", "assay_type": "in vivo, human", "details": "for testosterone concentration in the plasma, 0 weeks (before ingestion) / testosterone concentration in the plasma, 24 weeks (after ingestion) / testosterone concentration in the plasma, Change rate (24 weeks - 0 weeks): High Dose Group (200 mg/daily, oral), mean±SD; for testosterone concentration in the plasma, 0 weeks (before ingestion): baseline", "description": "In order to confirm a change in the testosterone quantity before and after ingestion of the nicotinamide mononucleotide, a test was conducted on healthy males and females aged 50 to 70 years.\nAs a sample of Working Example 8, a capsule formulation containing the nicotinamide mononucleotide and starch (200 mg of the nicotinamide mononucleotide in 4 capsules) (manufactured by SHINKOWA PHARMACEUTICAL Co., Ltd.) was used.\nas §1\nMeasurement of the testosterone quantity in the plasma was conducted by requesting the measurement to an external public organization according to a usual method. FIGS. 16a to 16c indicate transitions of the testosterone concentration (ng/ml) in the plasma for 24 weeks. FIG. 16a represents the transitions of the whole subjects; FIG. 16b represents the transitions of the male subjects; FIG. 16c represents the transitions of the female subjects. Further, FIGS. 17a to 17c indicate change rates (%) of the blood testosterone concentration up to 24 weeks when the nicotinamide mononucleotide was orally administered to the subjects for 24 weeks. FIG. 17a represents the change rates of the whole subjects; FIG. 17b represents the change rates of the male subjects; FIG. 17c represents the change rates of the female subjects. Further, Table 8 indicates the numerical values of the testosterone concentration (ng/ml) in the plasma before the ingestion of the nicotinamide mononucleotide (0 weeks) and after the ingestion of the nicotinamide mononucleotide (24 weeks). Note that the numerical values represent mean values±standard deviation."}}}
{"smiles": "NC(=O)c1ccc[n+]([C@@H]2O[C@H](COP(=O)([O-])O)[C@@H](O)[C@H]2O)c1", "note": "[nicotinamide mononucleotide]", "values": [{"measurement": "calcitonin concentration in the plasma, 0 weeks (before ingestion)", "setting": "[1]; Female", "value": "0.60 ± 0.10", "unit": "pg/mL"}, {"measurement": "calcitonin concentration in the plasma, 24 weeks (after ingestion)", "setting": "[1]; Female", "value": "0.71 ± 0.20", "unit": "pg/mL"}, {"measurement": "calcitonin concentration in the plasma, Change rate (24 weeks - 0 weeks)", "setting": "[1]; Female", "value": "0.11 ± 0.10", "unit": "pg/mL"}, {"measurement": "calcitonin concentration in the plasma, 0 weeks (before ingestion)", "setting": "[1]; Male", "value": "2.35 ± 1.97", "unit": "pg/mL"}, {"measurement": "calcitonin concentration in the plasma, 24 weeks (after ingestion)", "setting": "[1]; Male", "value": "2.44 ± 2.21", "unit": "pg/mL"}, {"measurement": "calcitonin concentration in the plasma, Change rate (24 weeks - 0 weeks)", "setting": "[1]; Male", "value": "0.09 ± 0.37", "unit": "pg/mL"}, {"measurement": "calcitonin concentration in the plasma, 0 weeks (before ingestion)", "setting": "[1]; Whole Subjects", "value": "1.48 ± 1.61", "unit": "pg/mL"}, {"measurement": "calcitonin concentration in the plasma, 24 weeks (after ingestion)", "setting": "[1]; Whole Subjects", "value": "1.58 ± 1.74", "unit": "pg/mL"}, {"measurement": "calcitonin concentration in the plasma, Change rate (24 weeks - 0 weeks)", "setting": "[1]; Whole Subjects", "value": "0.10 ± 0.25", "unit": "pg/mL"}, {"measurement": "calcitonin concentrations in the plasma, effect of ingestion (in words)", "setting": "[1]; oral, 200 mg/daily, 24 weeks, FIGS. 24a-24c, 25a-25c", "value": "increased"}, {"measurement": "testosterone concentration in the plasma, 0 weeks (before ingestion)", "setting": "[2]; Female", "value": "0.09 ± 0.06", "unit": "ng/mL"}, {"measurement": "testosterone concentration in the plasma, 24 weeks (after ingestion)", "setting": "[2]; Female", "value": "0.10 ± 0.05", "unit": "ng/mL"}, {"measurement": "testosterone concentration in the plasma, Change rate (24 weeks - 0 weeks)", "setting": "[2]; Female", "value": "0.00 ± 0.03", "unit": "ng/mL"}, {"measurement": "testosterone concentration in the plasma, 0 weeks (before ingestion)", "setting": "[2]; Male", "value": "5.66 ± 1.54", "unit": "ng/mL"}, {"measurement": "testosterone concentration in the plasma, 24 weeks (after ingestion)", "setting": "[2]; Male", "value": "5.90 ± 1.59", "unit": "ng/mL"}, {"measurement": "testosterone concentration in the plasma, Change rate (24 weeks - 0 weeks)", "setting": "[2]; Male", "value": "0.25 ± 0.92", "unit": "ng/mL"}, {"measurement": "testosterone concentration in the plasma, 0 weeks (before ingestion)", "setting": "[2]; Whole Subjects", "value": "2.87 ± 3.11", "unit": "ng/mL"}, {"measurement": "testosterone concentration in the plasma, 24 weeks (after ingestion)", "setting": "[2]; Whole Subjects", "value": "3.00 ± 3.24", "unit": "ng/mL"}, {"measurement": "testosterone concentration in the plasma, Change rate (24 weeks - 0 weeks)", "setting": "[2]; Whole Subjects", "value": "0.13 ± 0.63", "unit": "ng/mL"}, {"measurement": "testosterone concentrations in the plasma, effect of ingestion (in words)", "setting": "[2]; oral, 200 mg/daily, 24 weeks, FIGS. 16a-16c, 17a-17c", "value": "increased"}]}
